Assay results: PMC6128562, “Evaluation of cytotoxicity features of antimicrobial peptides with potential to control bacterial diseases of citrus” (PLoS ONE, 2018)
Where no end group is shown, it is not given here.

Columns and labels:
[1] = tested on: Galleria mellonella larvae; assay: Toxicity in Galleria mellonella larvae; assay type: in vivo; conditions: for Median (%survival): over Experiments 1 and 2; for survival percentages of larvae: at 64 and 128 μM
Experimental: The peptides citrus–amp1 and citrus–amp2 were selected for toxicity assay in G. mellonella. Larvae with 0.15 to 0.20 g were randomly selected for the experiments and were kept without food in Petri plates at 37°C in the dark for 24 h prior to use. Each larva was injected with 10 μL of peptides at 64 and 128 μM into the last proleg using a Hamilton micro-syringe. […] The larvae were incubated at 37°C and survival was evaluated daily for 7 days. Group of 8–9 larvae was used to each concentration of peptides and 10 μL of PBS was injected in the control group. Two independent experiments were performed.

[2] = tested on: U87 MG cells; assay: Cytotoxicity in U87 MG cells (alamarBlue); assay type: cell-based, human; conditions: concentrations of 1–128 μM, 24 h
Experimental: U87 MG, a human Glioblastoma cell line frequently used as a model for cytotoxicity evaluation was adopted in our study for the peptides citrus–amp1 and citrus–amp2. Cells were plated in 96 wells plate (5x10^4 cells per well), incubated overnight and maintained in a humidified atmosphere at 37°C and 5% CO2. After the incubation period, cells were treated with peptides varying from 1μM to 128 μM and then incubated for 24h. Untreated and cells treated with DMSO (dimethyl sulfoxide) were used as positive and negative control for the viability of U87 MG cells. Six replicates were done by each concentration.
Cytotoxicity was performed using alamarBlue® cell viability reagent, a cell health indicator, through the reduction of […] of living cells. Viable cells convert Resazurin (blue) to resorufin, a compound that emits red fluorescent light. Alamar Blue medium was prepared by mixing medium with alamarBlue solution (Thermo Ficher Scientific) in a ratio of 10:1. After treatment with the peptides for 24 h, the medium was discarded, and Alamar Blue medium (100 μL) was transferred to a 96-well microplate. The microplates were incubated with Alamar Blue at 37°C for 4 h, and absorbance was measured using Epoch2 Microplate Reader (Biotek) in 570 nm. Cell viability was calculated using the ratio of the absorbance between treated and untreated cells and the data were expressed as percentages. […]

[3] = tested on: Sinorhizobium meliloti SEMIA 165; assay type: cell-based; conditions: ND = higher than the concentrations evaluated; for MIC S. meliloti: microplate, inoculum 10^4 CFU/mL in PBS, peptide 1–64 μM, 595 nm, three replicates; for MBC S. meliloti: serial dilution, microdrop technique, 28°C three days
Text: (§1) Two important citrus pathogenic bacteria were addressed in our study: X.citri (isolate 306), the causal agent of citrus canker, and CaLas, causal agent of HLB. Since the latter cannot be cultivated in vitro, surrogates phylogenetically related to CaLas were used in the assays. The surrogates chosen were S. meliloti SEMIA 165 (= USDA 1002) and A. tumefaciens (GV3101/PMP90), provided by FEPAGRO (Fundação Estadual de Pesquisa Agropecuária) and by Dr. Janete Desidério, UNESP (Universidade Estadual Paulista, Jaboticabal, São Paulo, Brazil). The effect of the AMPs on Methylobacterium sp., an endophytic commonly found at citrus in Brazil and kindly provided by Dr. Wellington Luiz Araújo, Instituto de Ciências Biomédicas, Universidade de São Paulo, Brazil, was also assessed. Methylobacterium sp. and X.citri was cultured in NBY solid medium and then in NBY liquid medium according to Amaral et al. for 48 hours at 28°C and 180 rpm. S. meliloti and A. tumefaciens were grown in YM medium (Yeast Mannitol Medium) (0.5 g/L KH2PO4, 0.2 g/L MgSO4 7.H2O, 0.1g/L NaCl, 10 g/L mannitol, 0.5 g/L yeast extract, 9g/L agar, pH 6.8) and then in YM liquid medium for 48 hours at 28°C and 180 rpm. In addition to the in vitro assays, X.citri::GFP [35], obtained from Dr. Adrián A. Vojnov (Instituto de Ciencia y Tecnología Dr. Cesar Milstein, Fundación Pablo Cassará, Consejo Nacional de Investigaciones Científicas y Técnicas (CONICET), Buenos Aires / Argentina), was used for the in vivo assays.
(§2) Antimicrobial peptide activity was performed in vitro using a microliter plate assay (96 well cell culture cluster—Costar®3599). Fifty microliters of inoculum at 10^4 CFU/mL prepared in PBS buffer (Phosphate buffered saline) was mixed with 50 μL of the peptide diluted in distilled water filter sterilized (dH2O). The final concentration of peptide evaluated ranged from 1–64 μM, and hylin-a1 and PBS were used as positive and negative control for AMP, respectively. […] Three replicates were prepared for each concentration evaluated.
(§3) At the end of the growth incubation, minimum bactericidal concentration (MBC) for each organism was determined by serial dilution using the microdrop technique, as described elsewhere. The Petri dishes were maintained at 28°C for three days to obtain CFU/mL.

[4] = tested on: tobacco leaves; conditions: 24 hpi; leaves started to dry out 12 hpi; cited from earlier work
Experimental: The peptide Hylin-1 and PBS buffer were used as positive and negative controls of the phytotoxicity assay, respectively. At seven days post inoculation (7 dpi), visual evaluation was performed in detached leaves. […] Makovitzki et al. assessed the toxicity of peptide C14-KLLK in tobacco leaves.

[5] = tested on: Methylobacterium sp.; assay type: cell-based; conditions: ND = higher than the concentrations evaluated
Text: as §1, §2, §3

[6] = tested on: Xanthomonas citri subsp. citri (X.citri, isolate 306); assay type: cell-based; conditions: ND = higher than the concentrations evaluated
Text: as §1, §2, §3

[7] = tested on: human erythrocytes; conditions: cited from earlier work
Text: Ocellatin4 ([…]-NH(2)) is a cytolytic peptide obtained from skin secretion of the South American frog Leptodactylus ocellatus. The analogue of this peptide named as, Ocellatin4-analogue ([…]) has positive charge at its N-terminus (lysine residue), similarly to K^0-W^6-Hy-a1.

[8] = 64 µM, Experiment 1, 7 days, n=8–9 larvae
[9] = 64 µM, Experiment 2, 7 days, n=8–9 larvae
[10] = 128 µM, Experiment 1, 7 days, n=8–9 larvae
[11] = 128 µM, Experiment 2, 7 days, n=8–9 larvae
[12] = 10 μL of 64 μM injected, 37°C, 7 days, mean±SD of two experiments, 8–9 larvae
[13] = 10 μL of 128 μM injected, 37°C, 7 days, mean±SD of two experiments, 8–9 larvae
[14] = microplate, inoculum 10^4 CFU/mL in PBS, peptide 1–64 μM, 595 nm, three replicates
[15] = serial dilution, microdrop technique, 28°C three days

Row | Substance | % survival [1, 8] | % survival [1, 9] | Median (%survival) ([1]; 64 µM) | % survival [1, 10] | % survival [1, 11] | Median (%survival) ([1]; 128 µM) | % survival [1, 12] | % survival [1, 13] | survival percentages of larvae [1] | MIC S. meliloti [3] | MBC S. meliloti [3] | other results
1 | IETFLKQLRSAANKIVGL [Citrus-amp1] | 88.9% | 88.9% | 88.9% | 100% | 88.9% | 94.5% | 88.89 ± 0% | 94.50 ± 7.85% | > 87% |  |  | 
2 | LESLASSAVRTANKARAKL [Citrus-amp2] | 100% | 75% | 87.5% | 100% | 87.5% | 93.8% | 87.50 ± 17.68% | 93.75 ± 8.84% | > 87% | 64 µM | 64 µM | viability percentages of cells [2]: > 70%
3 | mellittin |  |  |  |  |  |  |  |  |  |  |  | toxicity in tobacco leaves at the inoculation point [4]: necrosis
4 | KIFGAIWPLALGALKNLIK [K^0-W^6-Hy-a1] |  |  |  |  |  |  |  |  |  | 4 µM | 62 µM | MIC Met sp. [5, 14]: 4 µM; MBC Met sp. [5, 15]: 8 µM; MIC X.ciri [6, 14]: 2 µM; MBC X.ciri [6, 15]: 2 µM
5 | GLLDFVTGVGKDIFAQLIKQI-NH(2) [ocellatin 4, cytolytic peptide from skin secretion of the frog Leptodactylus ocellatus] |  |  |  |  |  |  |  |  |  |  |  | activity on human erythrocytes at [7]: 14.3 mmol/L
